Source: patent US9365851B2, “Spalt-like transcription factor 4 (SALL4) and uses thereof” (National University of Singapore, priority 2011, dated 2016)
Like-named read-outs stand apart in the source and are kept apart here.

Tests used:
PTEN = PTEN expression upon SALL4 gene knockdown in HCC cells (qPCR, Western blot densitometry); type: cell-based, human; conditions: day 4 post-transduction
Text: FIGS. 26A-26C: PTEN repression as a mechanism of SALL4-induced HCC. (26A) qPCR analysis of PTEN expression upon SALL4 gene knockdown. […] E5 shRNA is a shRNA specifically targets SALL4. (26B) Western blot analysis of PTEN protein expression upon SALL4 gene knockdown using fractionated nuclear (N) and cytoplasmic […] lysates. A total cell lysate (T) was used for protein expression analysis too. SALL4 is exclusively present in cell nuclei (left). Densitometry analysis of total PTEN expression (top right) and cytoplasmic PTEN expression (bottom right).
PTEN expression upon SALL4 gene knockdown was investigated by qPCR and western blot.

HDAC1 and HDAC2 = assay: Anti-FITC pull-down of FITC-labeled peptides from SNU-398 nuclear extracts, Western blot for HDAC1/HDAC2; type: binding, human; conditions: anti-FITC IP
Description: For the pull down assay FITC-labeled version of the peptides and anti-FITC antibody (Santa Kruz, Calif.) was used. The antibody was immobilized covalently on the surface of Dinabeads (Invitrogen). The magnetic beads were than used in the pull down reaction according to the instruction of the manufacturer with the following minor modifications: 1 mM DTT, 0.1 mM NaF, 1 mM PMSF, 1 mM Na orthovanadate, and 1:100 final dilution of protease inhibitor, (Sigma Co.) was added to the extraction buffer. The NaCl concentration was optimized to 100 mM. Eluted proteins were submitted to Western blotting using standard procedure and the protein bands were visualized using antibodies to HDAC1 and 2 (Sigma)
(§1) Next tested was whether this wt 12-AA could compete with SALL4 in interacting with NuRD. A hepatocellular carcinoma cell line SNU-398 with abundant SALL4 expression was chosen for the following groups of experiences. Whether the wt 12-AA or its control (Mut and Scr) can bind to HDAC1 and HDAC2, the two NuRD components, was first evaluated. […] The histone deacetylase activity of the peptide pull-down complex was then measured using a Fluorescent Assay kit (Active Motif) (FIG. 1D). The active enzymatic activity of the HDACs tested by this assay corresponds to the amount of the HDAC proteins in the sample.
First evaluated was whether the wild type peptide or the mutant or scrambled controls could bind to HDAC1 and HDAC2, which comprise part of the NuRD complex 38. The hepatocellular carcinoma (HCC) cell line SNU-398 expresses abundant amount of SALL4 and was chosen for the following 9 experiments. […] To test this possibility, the histone deacetylase activity of the peptide pull-down complex was measured using a fluorescent assay kit (FIG. 8C). The active enzymatic activity of the HDACs tested by this assay corresponded to the amount of the HDAC proteins in the sample.

HDAC = HDAC activity assay of peptide pull-down complex (SNU-398 nuclear extracts); type: biochemical, human; conditions: compared to IgG control
Description: Assay was performed with the Fluorescent HDAC Assay Kit (Active Motif) having the following modifications: Following the pull down described in Western Blotting section the proteins bound to the beads were eluted in buffer containing 20 mM HEPES (pH 7.5) 350 mM NaCl, 20% glycerol, 1% Igepal CA-630, 1 mM MgCl2, 5 mM DTT and Protease inhibitors (Sigma). The eluates were used as an HDAC enzyme source in an enzymatic reaction for 2 h at 37 C. The HDAC reactions were performed twice on various samples, and each time in triplicate.
as §1, with “The active enzymatic activity of the HDACs tested by this assay corresponds to the amount of the HDAC proteins in the sample.” left out
First evaluated was whether the wild type peptide or the mutant or scrambled controls could bind to HDAC1 and HDAC2, which comprise part of the NuRD complex 38. […] To test this possibility, the histone deacetylase activity of the peptide pull-down complex was measured using a fluorescent assay kit (FIG. 8C). […]

MCF7 cells = assay: Cell viability assay (MTT); type: cell-based; conditions: MCF7, 48-72 h
Description: Cell viability assay (MTT) (Invitrogen) was performed according to the manufacturer's instructions. Briefly—10000 cells were seeded in 100 ul medium in 96 well plates. The next day cells were treated as indicated on the figures. At the designated time after the treatment 20 ul of 5 mg/ml MTT solution was added to each well. After 3.5 h incubation at 37 C the medium was removed and the reaction was terminated with a solution of 4 mM HCl, 0.1% Nondet P-40 (NP40) all in isopropanol in dark on orbital shaker for […]. at room temperature. The absorbance was read at 590 nm with a reference filter of 620 nm in Spectromax M3 (ABI) spectrophotometer.
Multiple cell lines with or without SALL4 expression were chosen to test the biological effect(s) of this wt peptide. Wt or its control (Scr or Mut) peptide was delivered into tumor cells at various concentrations, and their effects on cells were evaluated at 48 or 72 hours post treatment by a MTT assay (Manufacture name). […] Since, as proposed herein, wt peptide can compete with SALL4 and release it from recruiting HDAC complex NuRD, the wt peptide would likely work as a HDAC inhibitor. Therefore, as a positive control, TSA, a broad HDAC inhibitor, was used in the same group of experiments along with the wt and Scr peptide.

PC9 cells = assay: Peptide treatment of lung cancer cells; type: cell-based
Text: 56B: Cell image after SALL4 knockdown in H522 cells.
A small peptide has been generated to block the oncogenic function of SALL4. […] Therefore, shown herein is that SALL4 plays a crucial role in tumor initiation and development of NSCLC, and targeting SALL4 may provide an innovated therapeutic approach in the treatment of lung cancer.

Substance: CTATTTAGCCAAAGGCAAA (short hairpin RNA, chemistry and delivery not given here, further chemistry not given here) [E5 shRNA]
- increase of PTEN mRNA (PTEN): 16.5%

Substance: H-MSRRKQAKPQHI-OH [wt peptide, MSRRKQAKPQHI]
- HDAC1 and HDAC2 detected in peptide pull-down (HDAC1 and HDAC2; listed as wild type peptide): easily detected
- HDAC1 and HDAC2 detected in peptide pull-down (HDAC1 and HDAC2; listed as wt): detected
- HDAC activity of peptide pull-down complex (HDAC): the most HDAC activity
- cell viability (MCF7 cells): decreased cell viability
- cell viability (MCF7 cells; listed as wild type peptide): displayed the same effect
- cell growth / cell death (PC9 cells; listed as Wt): cell growth arrest
- cell growth / cell death (PC9 cells; listed as small peptide): resulted in cell death

Substance: Scr peptide: same 12 amino acids as the wt peptide, but in a scrambled sequence; negative control (SRMRQKIHPKIQ) [reference compound]
- HDAC1 and HDAC2 detected in peptide pull-down (HDAC1 and HDAC2): never
- HDAC1 and HDAC2 detected in peptide pull-down (HDAC1 and HDAC2; listed as scrambled peptide): undetectable
- HDAC activity of peptide pull-down complex (HDAC): no HDAC activity
- cell viability (MCF7 cells): remained unaffected
- cell growth / cell death (PC9 cells): no effect on the cells
